By EC50 is commonly meant the concentration giving half of the maximal effect. A word on the IC50: it is the concentration at which inhibition is half-maximal.

Several values for one entry are separate records, joined by “and”; a condition that tells them apart may be missing. Equal values may be shown once. Read-outs that look alike come from different tables or passages of the source. A value given as a limit tells only on which side of the number the result lay.

Here are results for 7 compounds from patent US20260209152A1, “Substituted Hydroxystilbene Compounds and Derivatives, Synthesis and Uses Thereof” (Kynan Duke IP, LLC, priority 2019, published 2026).

Data set [1] concerns primary human keratinocytes. Description: Cell viability in keratinocyte CCL2 assay (assay number 1243). In kind it is cell-based. Particulars: Homo sapiens. From the text:
(§1) • 1. Determination of inhibition of CCL2 release from IL-4, IL-13, IL-22 and IFN-γ-stimulated primary human keratinocytes [assay number 1280] and determination of the effect on cell viability [assay number 1243]. • 2. Determination of inhibition of IL-8 release from IL-17A and TNFα-induced primary human keratinocytes [assay number 1250] and determination of the effect on cell viability [assay number 1244]. • 3. Determination of inhibition of IL-17A secretion from human PBMC stimulated with antiCD3/antiCD28-coated beads [assay number 1321] and determination of the effect on cell viability [assay number 1322]. • 4. Determination of inhibition of IL-4 and IL-2 secretion from human CD4-positive T-cells stimulated with antiCD2/antiCD3/antiCD28-coated beads [assay number 1297, 1298] and determination of the effect on cell viability [assay number 1299].

Assay in data set [2]: as above
Format: cell-based, human. To be noted: human.
Description: as §1

For data set [3], the system named is human CD4-positive T-cells. As to the kind of experiment: Cell viability in T-cell IL-2 & IL-4 assay (assay number 1299). In kind it is cell-based. To be noted: Homo sapiens, CD4 positive. The method, then: (§2) Then the level of secreted of IL-4 is measured in the culture supernatant using electrochemiluminescence (MSD kits, Meso Scale Discovery), IL-2 is measured by proximity homogenous time-resolved fluorescence (HTRF) and the amount of living cells is measured by addition of resazurin (PrestoBlue®) to allow identifying compounds that inhibit T-cell proliferation or viability.
(§3) • Remove plates from incubation and equilibrate to room temperature for 30 minutes. • IL-4 concentration in 10 μL supernatant is measured using an MSD IL-4 384-plate kit (Custom made) according to manufacturer protocol. • IL-2 concentrations in the supernatant is measured by an IL-2 HTRF kit, CisBio, cat. No 62HIL02PEH. • Add 4 μL medium to white proxi 384-well plates • Add 1 μL supernatant. • Add 4 μL mHTRF mix (each diluted 1:300 in ⅔ reconstitution buffer and ⅓ assay medium). • Spin the plates for 1 minute at 170 g • Seal and incubate overnight and read fluorescence in a plate reader • The amount of viable cells is measured by PrestoBlue® reagent • Add 15 μL diluted PrestoBlue® reagent (resazurin) corresponding to 2.5 μL Prestoblue/well to the assay plate. • Incubate overnight at 37° C./5% CO2. The fluorescence in the wells is measured (Ex615/Em 535).
(§4) The level of living cells in the wells is measured by the addition of PrestoBlue® and the conversion of Resazurin to Resorufin (fluorescent) in living cells is measured.
(§5) The effect of the test compounds on viability/proliferation is normalized to the PrestoBlue signal in the negative control wells treated with a toxic compound, Terfenadine.

Assay in data set [4]: as above
In kind it is cell-based, human. Particulars: human, human CD4-positive T-cells. The method, then: as §2, §3, §4, §5

The subject of data set [5] is primary human keratinocytes. Description: Cell viability in keratinocyte IL-8 assay (assay number 1244). In kind it is cell-based. To be noted: Homo sapiens.
Description: as §1

Assay in data set [6]: as above
Particulars: human, primary human keratinocytes induced with IL-17A and TNFα. In kind it is cell-based, human.
Description: as §1

In data set [7] the test system is Pancreatic MIA PaCa-2. Description: CellTiter Glo cell viability assay. Format: cell-based, human. Put shortly: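 MIA PaCa-2 human pancreatic cancer cells were plated in 96-well plates, 1.7*10^3 cells/well in quadruplicate, and compounds were added as serial dilutions to build dose-response curves. Viability was read by CellTiter Glo Luminescence (Promega) on a Varioskan LUX reader. Relative luminescence was plotted against log dose, and IC50 was obtained by nonlinear regression in GraphPad Prism 7.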

The mark [8] stands for this setting: Keratinocyte, cell viability in CCL2 assay, read-out: Abs EC50: Viab (1243).
Setting [9] is: maximum reduction of cell viability in CCL2 assay, read-out: Max Eff.: Viab (1243).
[10] abbreviates: cell viability in T-cell IL-2 & IL-4 assay, read-out: Abs EC50: Viab (1299).
The mark [11] stands for this setting: maximum reduction of cell viability in T-cell IL-2 & IL-4 assay, read-out: Max Eff.: Viab (1299).
The mark [12] stands for this setting: Keratinocyte, cell viability in IL-8 assay, read-out: Abs EC50: Viab (1244).
Where [13] appears, read: maximum reduction of cell viability in IL-8 assay, read-out: Max Eff.: Viab (1244).
The mark [14] stands for this setting: Homo sapiens, MIA PaCa-2, 72 h, 3 Days of treatment, 18 2-fold dilutions 5-0.00003 μM, read-out: Average IC50.
The mark [15] stands for this setting: Homo sapiens, MIA PaCa-2, 72 h, Table 4: 3 Days of treatment, 18 2-fold dilutions 5-0.00003 μM, Average (1, 8) or single Exp A-D, read-out: IC50.
[16] abbreviates: Homo sapiens, MIA PaCa-2, 120 h, Day 5 upon drug treatment, 10 dosages 0.0001-20 μM (Compound 8: 18 dosages 0.000038146 to 5 μM), read-out: IC50.
Where [17] appears, read: Homo sapiens, MIA PaCa-2, MIA PaCa-2/CRL-1420, 11 dilutions 3-0.00001 μM, Table 6, read-out: IC50.
[18] abbreviates: Homo sapiens, MIA PaCa-2, Table 5A: 11 dilutions 3-0.00001 μM, average of experiments, read-out: IC50 average.
Where [19] appears, read: keratinocyte CCL2 assay, read-out: EC50, cell viability.
The mark [20] stands for this setting: keratinocyte CCL2 assay, read-out: maximum reduction of cell viability.
Where [21] appears, read: T-cell IL-2 & IL-4 assay, read-out: EC50, cell viability.
Where [22] appears, read: T-cell IL-2 & IL-4 assay, read-out: maximum reduction of cell viability.
The mark [23] stands for this setting: keratinocyte IL-8 assay, read-out: EC50, cell viability.
Where [24] appears, read: keratinocyte IL-8 assay, read-out: maximum reduction of cell viability.
The mark [25] stands for this setting: Homo sapiens, MIA PaCa-2, Table 5A: 11 dilutions 3-0.00001 μM, single experiments Exp E-K, read-out: IC50.
[26] abbreviates: Table 5A: 11 dilutions 3-0.00001 μM, single experiments Exp E-K, read-out: IC50.

As for `COc1cc(/C=C/c2cc(O)cc(OC)c2CC=C(C)C)ccc1O` [Compound 1, (E)-3-(4-hydroxy-3-methoxystyryl)-5-methoxy-4-(3-methylbut-2-en-1-yl)phenol], the EC50 turned out to be 202 nM in data set [1] (setting [8]), 5000 nM in data set [3] (setting [10]) and 90 nM in data set [5] (setting [12]). The cytotoxicity in data set [2] (setting [9]) turned out to be 77%; in data set [4] (setting [11]) it was 35%; in data set [6] (setting [13]), 92%. Also, the IC50 is 127 nM in data set [7] (setting [14]); 204 nM in data set [7] (Homo sapiens, MIA PaCa-2, 72 h, Day 3 upon drug treatment, 10 dosages 0.0001-20 μM, read-out: IC50); 888 nM in data set [7] (setting [15]); 50.7 nM in data set [7] (setting [16]); 109 nM in data set [7] (setting [17]); 80.6 nM in data set [7] (setting [18]).
For the compound `CCOc1cc(O)cc(/C=C/c2ccc(O)c(OC)c2)c1CC=C(C)C` [Compound 8, (E)-3-Ethoxy-5-(4-hydroxy-3-methoxystyryl)-4-(3-methylbut-2-en-1-yl)phenol], the EC50 amounted to 235 nM in data set [1] (setting [8]), 5000 nM in data set [3] (setting [10]) and 32 nM in data set [5] (setting [12]). Besides, the results for the cytotoxicity in data set [2] (setting [9]), in data set [4] (setting [11]) and in data set [6] (setting [13]) were 99%, 46% and 101%, respectively. In addition, the IC50 is 18.1 nM in data set [7] (setting [14]); 210 nM in data set [7] (setting [15]); roughly 0.47 nM in data set [7] (setting [16]); 23.4 nM in data set [7] (setting [17]); 25 nM in data set [7] (setting [18]); 25.5 nM in data set [7] (Table 5A: 11 dilutions 3-0.00001 μM, average of experiments, read-out: IC50 average). The “Fold IC50” value in data set [7] (IC50 of 1 [KYN-001] vs 8 [KYN-119], 3 Days) is given as 7.0.
Turning to `CCOc1cc(O)cc(/C=C/c2ccc(O)c(O)c2)c1CC=C(C)C` [Compound 20, (E)-4-(3-Ethoxy-5-hydroxy-2-(3-methylbut-2-en-1-yl)styryl)benzene-1,2-diol], the results for the EC50 in data set [1] (setting [8]), in data set [3] (setting [10]) and in data set [5] (setting [12]) were 442 nM, 5000 nM and 221 nM, respectively. Moreover, the cytotoxicity turned out to be 61% in data set [2] (setting [9]), 15% in data set [4] (setting [11]) and 76% in data set [6] (setting [13]). The IC50 in data set [7] (setting [17]) is 54.9 nM.
Turning to `COc1cc(/C=C/c2cc(O)cc(OC)c2CC=C(C)C)ccc1NC=O` [Compound 27, (E)-N-(4-(5-hydroxy-3-methoxy-2-(3-methylbut-2-en-1-yl)styryl)-2-methoxyphenyl)formamide], the EC50 is 41 nM in data set [1] (setting [8]); 41 nM in data set [1] (setting [19]); 4350 nM in data set [3] (setting [21]); 4350 nM in data set [3] (setting [10]); 32 nM in data set [5] (setting [12]); 32 nM in data set [5] (setting [23]). Also, the cytotoxicity in data set [2] (setting [20]) was found to be 67%; in data set [4] (setting [22]), 52%; in data set [6] (setting [24]) it was 83%. Besides, the IC50 in data set [7] (setting [17]) is 21.4 nM; in data set [7] (setting [18]), 15 nM; in data set [7] (setting [25]) it was 10 to 100 nM; in data set [7] (setting [26]), 14.7 nM and 13.4 nM and 16.8 nM. The “Fold more potent than 1 [KYN-001]” value in data set [7] (MIA PaCa-2 cells) is reported as “approximately 5”.
On to `CCOc1cc(O)cc(/C=C/c2ccc(NC=O)c(OC)c2)c1CC=C(C)C` [Compound 28, (E)-N-(4-(3-Ethoxy-5-hydroxy-2-(3-methylbut-2-en-1-yl)styryl)-2-methoxyphenyl)formamide], for which the EC50 in data set [1] (setting [8]) was 124 nM; in data set [1] (setting [19]), 124 nM; in data set [3] (setting [21]) it was 2360 nM; in data set [3] (setting [10]), 2360 nM; in data set [5] (setting [12]), 35 nM; in data set [5] (setting [23]) it was 35 nM. The cytotoxicity in data set [2] (setting [20]) was 68%; in data set [4] (setting [22]) it was 60%; in data set [6] (setting [24]), 81%. Also, the IC50 in data set [7] (setting [17]) is 12.9 nM; in data set [7] (setting [25]) it was less than 1 nM; in data set [7] (setting [26]), 0.94 nM and 0.936 nM.
Take `COc1cc(/C=C/c2cc(O)cc(OC)c2CC=C(C)C)ccc1NC(=O)CN` [Compound 31, (E)-2-amino-N-(4-(5-hydroxy-3-methoxy-2-(3-methylbut-2-en-1-yl)styryl)-2-methoxyphenyl)acetamide]: the EC50 was found to be 431 nM in data set [1] (setting [8]), 5000 nM in data set [3] (setting [10]) and 416 nM in data set [5] (setting [12]). Moreover, the cytotoxicity in data set [2] (setting [9]) was 86%; in data set [4] (setting [11]), 19%; in data set [6] (setting [13]) it was 100%. Moreover, the IC50 in data set [7] (setting [25]) was 3180 nM.
With `CCOc1cc(O)cc(/C=C/c2ccc(NC(=O)C(=O)O)c(OC)c2)c1CC=C(C)C` [Compound 35, (E)-2-((4-(3-Ethoxy-5-hydroxy-2-(3-methylbut-2-en-1-yl)styryl)-2-methoxyphenyl)amino)-2-oxoacetic acid], the EC50 in data set [1] (setting [8]), in data set [3] (setting [10]) and in data set [5] (setting [12]) was 5000 nM throughout. Further, the figures for the cytotoxicity in data set [2] (setting [9]), in data set [4] (setting [11]) and in data set [6] (setting [13]) were 30%, 7% and 72%, respectively.
